Reference: US20190159450A1, “PYRIDINE-BASED COMPOUND INCLUDING ISOXAZOLINE RING AND USE THEREOF AS HERBICIDE” (MOGHU RESEARCH CENTER LTD., priority 2016, published 2019)

Key:
Format in all cases: in vivo
[1] = system: Abutilon theophrasti Medicus; assay: Herbicidal activity test, pre-weeds emergence treatment; details: Table 4, 200 g/ha, assessed 2 to 3 weeks after spraying, scale 0-10 (0: no effect, 10: complete death)
Method: (§1) A rectangular plastic pot with a surface area of 300 cm^2 was filled with sandy loam soil and mixed soil at a ratio of 1:1, and four kinds of weeds including Quamoclit pennata, Abutilon theophrasti Medicus, and Aeschynomene indica, Xanthium strumarium were sown therein. In another pot made in the same way, three kinds of crop seeds including maize, wheat, and rice were sown. The pots were watered and one day later, a medicament was sprayed thereon. The spraying was performed by using a track sprayer (R&D Sprayer, USA) equipped with Teejet 8002EVS (Spraying Systems Co., USA) nozzle, and the spray amount was controlled to be 1000 L/ha. A spray solution was prepared by dissolving the compound of each example or a control material in acetone, and then, adding the same amount of 0.1% (v/v) tween 20 aqueous solution thereto. The spray amount was 200 g/ha. The pots were placed in a greenhouse in which the temperature was maintained at 25° C. to 30° C. during the day and 15° C. to 25° C. during the night, and was regularly watered. After 2 to 3 weeks from the spraying of the compounds or the control material, the efficacy and the damages on each weed and each crop were assessed according to the scale of 0-10 (0: no effect, 10: complete death) scale and the results are shown in Table 3 below.
(§2) Pots for crops and weeds were prepared in the same manner as the test method illustrated in Table 3, and three kinds of weeds selected from Quamoclit pennata, Abutilon theophrasti Medicus, and Aeschynomene indica, Xanthium strumarium were used.

[2] = system: Aeschynomene indica; assay: as above; details: Table 4, 200 g/ha, assessed 2 to 3 weeks after spraying, scale 0-10 (0: no effect, 10: complete death)
Method: as §1, §2

[3] = system: Xanthium strumarium; assay: as above; details: Table 4, 200 g/ha, assessed 2 to 3 weeks after spraying, scale 0-10 (0: no effect, 10: complete death)
Method: as §1, §2

[4] = system: Quamoclit pennata; assay: as above; details: Table 4, 200 g/ha, assessed 2 to 3 weeks after spraying, scale 0-10 (0: no effect, 10: complete death)
Method: as §1, §2

[5] = system: wheat; assay: Herbicidal activity test, pre-weeds emergence treatment (crop damage); details: Table 4, 200 g/ha, assessed 2 to 3 weeks after spraying, scale 0-10 (0: no effect, 10: complete death)
Method: as §1, §2

[6] = system: maize; assay: as above; details: Table 4, 200 g/ha, assessed 2 to 3 weeks after spraying, scale 0-10 (0: no effect, 10: complete death)
Method: as §1, §2

[7] = system: rice; assay: as above; details: Table 4, 200 g/ha, assessed 2 to 3 weeks after spraying, scale 0-10 (0: no effect, 10: complete death)
Method: as §1, §2

[8] = system: wheat; assay: Herbicidal activity test, post-weeds emergence treatment (crop damage); details: spray amount 200 g/ha for crops, assessed after 2 to 3 weeks, 0: no effect, 10: complete death, Table 6
Method: as §1
(§3) Pots for crops and weeds were prepared in the same manner as in Experimental Example 1, and then, when the crops and the weeds were raised up to 2 weeks roughly on a third-leaf stage, the compounds and the control material were sprayed thereon in the same manner as described above. The spray amount was 200 g/ha. After 2 to 3 weeks from the spraying of the test substance or the control substance, the efficacy and the damages on each weed and each crop were assessed according to the scale of 0-10 (0: no effect, 10: complete death) scale.
as §2, with “5,” for “3,”, “four” for “three”, “used. The spray amount was 200 g/ha for crops and 50 g/ha for weeds.” for “used.”

[9] = system: maize; assay: as above; details: spray amount 200 g/ha for crops, assessed after 2 to 3 weeks, 0: no effect, 10: complete death, Table 6
Method: as §1, §3
as §2, with “5,” for “3,”, “four” for “three”, “used. The spray amount was 200 g/ha for crops and 50 g/ha for weeds.” for “used.”

[10] = system: rice; assay: as above; details: spray amount 200 g/ha for crops, assessed after 2 to 3 weeks, 0: no effect, 10: complete death, Table 6
Method: as §1, §3
as §2, with “5,” for “3,”, “four” for “three”, “used. The spray amount was 200 g/ha for crops and 50 g/ha for weeds.” for “used.”

[11] = system: Abutilon theophrasti Medicus; assay: Herbicidal activity test, post-weeds emergence treatment; details: spray amount 50 g/ha for weeds, assessed after 2 to 3 weeks, 0: no effect, 10: complete death, Table 6
Method: as §1, §3
as §2, with “5,” for “3,”, “four” for “three”, “used. The spray amount was 200 g/ha for crops and 50 g/ha for weeds.” for “used.”

[12] = system: Aeschynomene indica; assay: as above; details: spray amount 50 g/ha for weeds, assessed after 2 to 3 weeks, 0: no effect, 10: complete death, Table 6
Method: as §1, §3
as §2, with “5,” for “3,”, “four” for “three”, “used. The spray amount was 200 g/ha for crops and 50 g/ha for weeds.” for “used.”

[13] = system: Xanthium strumarium; assay: as above; details: spray amount 50 g/ha for weeds, assessed after 2 to 3 weeks, 0: no effect, 10: complete death, Table 6
Method: as §1, §3
as §2, with “5,” for “3,”, “four” for “three”, “used. The spray amount was 200 g/ha for crops and 50 g/ha for weeds.” for “used.”

[14] = system: Quamoclit pennata; assay: as above; details: spray amount 50 g/ha for weeds, assessed after 2 to 3 weeks, 0: no effect, 10: complete death, Table 6
Method: as §1, §3
as §2, with “5,” for “3,”, “four” for “three”, “used. The spray amount was 200 g/ha for crops and 50 g/ha for weeds.” for “used.”

| Structure (SMILES) | PRE ABUTH (Abutilon theophrasti Medicus), efficacy score [1] | PRE AESIN (Aeschynomene indica), efficacy score [2] | PRE XANST (Xanthium strumarium), efficacy score [3] | PRE IPOAN (Quamoclit pennata), efficacy score [4] | PRE TRZAW (wheat), damage score [5] | PRE ZEAMX (maize), damage score [6] | PRE ORYSA (rice), damage score [7] | TRZAW (wheat) damage, scale of 0-10 [8] | ZEAMX (maize) damage, scale of 0-10 [9] | ORYSA (rice) damage, scale of 0-10 [10] | ABUTH (Abutilon theophrasti Medicus) herbicidal efficacy, scale of 0-10 [11] | AESIN (Aeschynomene indica) herbicidal efficacy, scale of 0-10 [12] | XANST (Xanthium strumarium) herbicidal efficacy, scale of 0-10 [13] | IPOAN (Quamoclit pennata) herbicidal efficacy, scale of 0-10 [14] |
| --- | --- | --- | --- | --- | --- | --- | --- | --- | --- | --- | --- | --- | --- | --- |
| COC(=O)c1nc(C2(C)CC(Br)=NO2)cc(N)c1Cl (stereo not drawn) [Compound 53, methyl 4-amino-3-chloro-6-(3-bromo-5-methyl-4,5-dihydroisoxazol-5-yl)picolinate] | 10 | 10 | 9 | 6 | 0 | 0 | 0 | 1 | 0 | 0 | 6 | 9 | 9 | 4 |
| CC1(c2cc(N)c(Cl)c(C(=O)O)n2)CC(Br)=NO1 (stereo not drawn) [Compound 54, 4-amino-3-chloro-6-(3-bromo-5-methyl-4,5-dihydroisoxazol-5-yl)picolinic acid] | 10 | 10 | 8 | 5 | 0 | 0 | 0 | 0 | 0 | 0 | 4 | 6 | 8 | 5 |
| CCOC(=O)c1nc(C2CC(Br)=NO2)cc(N)c1Cl (stereo not drawn) [Compound 73, ethyl 4-amino-6-(3-bromo-4,5-dihydroisoxazol-5-yl)-3-chloropicolinate] | 10 | 10 | 9 | 6 | 0 | 0 | 0 | 1 | 0 | 0 | 6 | 9 | 9 | 4 |
| CC(C)OC(=O)c1nc(C2CC(Br)=NO2)cc(N)c1Cl (stereo not drawn) [Compound 83, isopropyl 4-amino-6-(3-bromo-4,5-dihydroisoxazol-5-yl)-3-chloropicolinate] | 0 | 5 | 2 | 5 | 0 | 0 | 0 | 0 | 0 | 0 | 4 | 5 | 7 | 5 |
| CC(C)COC(=O)c1nc(C2CC(Br)=NO2)cc(N)c1Cl (stereo not drawn) [Compound 84, isobutyl 4-amino-6-(3-bromo-4,5-dihydroisoxazol-5-yl)-3-chloropicolinate] | 4 | 10 | 10 | 5 | 0 | 0 | 1 | 0 | 0 | 0 | 6 | 9 | 10 | 6 |
| Nc1cc(C2CC(Br)=NO2)nc(C(=O)Oc2ccccc2)c1Cl (stereo not drawn) [Compound 85, phenyl 4-amino-3-chloro-6-(3-bromo-4,5-dihydroisoxazol-5-yl)picolinate] | 8 | 10 | 10 | 6 | 0 | 0 | 0 | 0 | 0 | 0 | 5 | 9 | 10 | 5 |
| Nc1cc(C2CC(Br)=NO2)nc(C(=O)OCc2ccccc2)c1Cl (stereo not drawn) [Compound 86, benzyl 4-amino-3-chloro-6-(3-bromo-4,5-dihydroisoxazol-5-yl)picolinate] | 3 | 6 | 2 | 3 | 0 | 0 | 0 | 0 | 0 | 3 | 4 | 2 | 8 | 5 |
| Cc1ccc(COC(=O)c2nc(C3CC(Br)=NO3)cc(N)c2Cl)cc1 (stereo not drawn) [Compound 87, 4-methylbenzyl 4-amino-6-(3-bromo-4,5-dihydroisoxazol-5-yl)-3-chloropicolinate] | 6 | 9 | 5 | 7 | 0 | 0 | 0 | 0 | 1 | 0 | 6 | 9 | 10 | 4 |
| Nc1cc(C2CC(Br)=NO2)nc(C(=O)OCc2ccc(C(F)(F)F)cc2)c1Cl (stereo not drawn) [Compound 88, 4-trifluoromethylbenzyl 4-amino-6-(3-bromo-4,5-dihydroisoxazol-5-yl)-3-chloropicolinate] | 5 | 10 | 9 | 3 | 0 | 0 | 0 | 0 | 0 | 0 | 5 | 8 | 10 | 6 |
